Experiments:
Type in all cases: biochemical
recombinant human IMPDH2 [1] = molecular target: T1, recombinant human IMPDH2 (Homo sapiens, UniProt P12268); assay: IMPDH activity assay kit, microplate, […] min preincubation; details: dose-dependent, 50-200 µM tested
T1 construct: commercial recombinant protein (R&D Systems); 514 residues full length; tetramer/octamer

recombinant human IMPDH2 [2] = molecular target: T1, recombinant human IMPDH2; assay: IMPDH activity assay, 96-well screen; details: read-out: % inhibition at 10 μM
recombinant human IMPDH2 [3] = molecular target: T1, recombinant human IMPDH2; assay: IMPDH activity assay kit, microplate; details: targeted to allosteric GTP-binding site of the CBS domain (site from docking)

T1 sequence (P12268 2-514): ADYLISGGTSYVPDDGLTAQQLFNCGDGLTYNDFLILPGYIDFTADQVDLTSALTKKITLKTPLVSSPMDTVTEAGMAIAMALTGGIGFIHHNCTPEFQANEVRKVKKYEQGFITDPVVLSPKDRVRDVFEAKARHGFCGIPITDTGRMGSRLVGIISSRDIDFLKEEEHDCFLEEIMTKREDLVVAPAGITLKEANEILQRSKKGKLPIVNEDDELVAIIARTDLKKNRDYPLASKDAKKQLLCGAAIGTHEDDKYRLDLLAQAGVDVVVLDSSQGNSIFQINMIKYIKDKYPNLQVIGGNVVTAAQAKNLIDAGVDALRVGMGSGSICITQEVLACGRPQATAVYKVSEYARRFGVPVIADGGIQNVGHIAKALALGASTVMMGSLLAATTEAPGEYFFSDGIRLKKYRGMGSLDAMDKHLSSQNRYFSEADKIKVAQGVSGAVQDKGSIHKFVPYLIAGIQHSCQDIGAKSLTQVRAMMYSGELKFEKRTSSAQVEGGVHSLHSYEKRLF

Row | Structure (SMILES) | inhibition at 10 µM (recombinant human IMPDH2 [2]) [%] | also measured
1 | CCCCCCCC(=O)OC[C@H](COP(=O)(O)O[C@@H]1[C@H](O)[C@H](OP(=O)(O)O)[C@@H](O)[C@H](O)[C@H]1O)OC(=O)CCCCCCC [PI(3)P diC8] |  | % inhibition at 200 μM (recombinant human IMPDH2 [1]): > 50%
2 | CN(C)c1ccc(C=c2sc3nc(=O)c(-c4ccccc4NC(=O)C(F)(F)F)nn3c2=O)cc1 [compound 5, comp-5] | > 32 | 
3 | O=C1C=CC(=O)c2c(O)c(N3CCN(CCOCCO)CC3)c(Br)c(O)c21 [compound 10, Comp-10] |  | IC50 (recombinant human IMPDH2 [3]): ~260 nM
4 | O=C1c2ccccc2C(=O)C1C(c1ccc([N+](=O)[O-])cc1)C1C(=O)c2ccccc2C1=O [compound 12, comp-12] | > 52 | 
